Measurements as given in patent US20200354331A1, “ICARIIN DERIVATIVES” (H. LEE MOFFITT CANCER CENTER AND RESEARCH INSTITUTE, INC., priority 2014, published 2020).

Columns and labels:
Gr-1+CD11b+ MDSCs = test: Circulating Gr-1+CD11b+ MDSC in spleens of 4T1 tumor-bearing mice (flow cytometry); assay type: in vivo, BALB/c mice; conditions: 100 mg/kg i.p. three times weekly, vehicle 50.28%
Description: FIG. 1 depicts the effects of ICA or ICT on the differentiation of MDSC. MDSC were isolated from spleens of 4T1 tumor-bearing mice. The maturation markers indicated were used to evaluate the differentiation and accumulation of MDSC in tumor bearing mice. Cell phenotype was evaluated by flow cytometry. One of the most striking features of ICA and ICT is their anti-tumorigenic ability in vivo. Seven days post-infection 1 cm diameter 4T1 tumors from 5 mice were established in BALB/c mice. Mice were treated with 100 mg/kg of ICA, ICT or vehicle (i.p.) three times weekly and tumor size (mean and SD) was monitored every 2 to 3 days. The percentages of double-positive Gr-1+CD11b′ MDSCs were determined for spleens of five mice per group. Cell phenotype was evaluated by flow cytometry. […] ICA or ICT on the differentiation of MDSC.

[1] = test system: CD16 (FcγRIII) in CD3− CD56+ NK cells; test: Surface expression of CD16 in NK cells (flow cytometry); assay type: cell-based; conditions: PBMC from healthy donors, 48 hours treatment
Description: FIG. 16 depicts the effect of ICA and ICT treatment on the surface expression of CD16 (FcγRIII) in NK cells. PBMC from healthy donors were treated with ICA/ICT or DMSO for 48 hours before analysis of CD16 expression by flow cytometry. NK cells were defined as CD3^− population and analyzed for the presence of CD16±CD56^+ cells as indicated.
An alternative strategy can be performed by measuring NK-mediated antibody dependent cytotoxicity (ADCC) on SIGLEC3^+ MDSC. […] This is particularly of interest, because these Fc receptors can be critical for the development of ADCC, a cytotoxic function of NK cells. This function can involve the activation of NK cells through the ligation of CD16 with an antibody already bound to a target cell which can trigger the target cell to undergo apoptosis through the release of cytotoxic granules containing perform and granzymes. Humanized anti-SIGLEC3/CD33 antibodies can be used to apply a strategy to deplete MDSC by NK-mediated ADCC.

PP2A = biological target: T1, PP2A (Homo sapiens, UniProt P67775); test: PP2A activity in PBMC lysates, in vitro phosphatase assay kit; assay type: cell-based; conditions: 48 hours, 1 μM
T1 construct: endogenous in cells; host or cells: human PBMC
Description: FIG. 9 depicts the effect of ICA and ICT on the activity of PP2A. Human PBMC were cultured for 48 hours with media, DMSO, 1 μM of ICA or ICT. The cell lysates were used to analyze PP2A activity using a commercial in vitro phosphatase assay kit (Millipore). Error bars represent the SEM of three separate experiments.
To understand if there is a link correlating S100A9/SIGLEC3 and PDE5 activation, SJCRH30 cells were transfected with either vector, S100A9 or SIGLEC 3. Seventy two hours post-transfection cells were lysed and assessed by Western Blot for either PDE5 or its phosphorylated counterpart. […] This represents a new pathway of MDSC activation that can be specifically targeted by ICA, ICT, and their derivatives disclosed herein.

4T1 tumors = test: 4T1 tumor growth in vivo; set-up: species or system BALB/c mice; conditions: 100 mg/kg i.p. three times weekly
Description: One of the most striking features of ICA and ICT is their anti-tumorigenic ability in vivo. Seven days post-infection 1 cm diameter 4T1 tumors from 5 mice were established in BALB/c mice. Mice were treated with 100 mg/kg of ICA, ICT or vehicle (i.p.) three times weekly and tumor size (mean and SD) was monitored every 2 to 3 days. The percentages of double-positive Gr-1+CD11b′ MDSCs were determined for spleens of five mice per group. Cell phenotype was evaluated by flow cytometry. […] ICA or ICT on the differentiation of MDSC.

SIGLEC3 = test: SIGLEC3/CD33 expression on PBMC (Q-PCR, flow cytometry); assay type: cell-based, human; conditions: healthy PBMC, 48 hours; for SIGLEC3 mRNA and protein expression: 1 μM (Q-PCR)
Description: FIG. 4 depicts the down-regulation of the RNA expression of SIGLEC3 on PBMCs due to ICA and ICT. Healthy PBMC were cultured for 48 hours with 1 μM of DMSO, ICA or ICT and the expression of SIGLEC3 was measured by Q-PCR and analyzed by the AACt method. Error bars indicate SEM.
FIG. 5 depicts the effect of ICT on the expression of SIGLEC3 and SIGLEC5 on PBMC. PBMC from healthy donors were treated for 48 hours with DMSO or ICT and stained extra-cellularly with SIGLEC3-PE and SIGLEC5/14-APC antibodies (BD biosciences).
SIGLEC3 is highly expressed in MDSCs isolated from patients with AML (FIG. 6a). […] Specifically, healthy PBMC were cultured for 48 hours with 1 μM of DMSO, ICA or ICT and the expression of SIGLEC3 was measured by Q-PCR and analyzed by the MCt method. Also, PBMC from healthy donors were treated for 48 hours with DMSO or ICT and stained extra-cellularly with SIGLEC3-PE and SIGLEC5/14-APC antibodies (BD biosciences). S100A9 can ligate with SIGLEC3, denoting the presence of an uncharacterized pathway that could be linked to the identification of specific strategies targeting the regulation of MDSC activation.
Healthy PBMC were cultured for 48 hours with […] of the PDE5 inhibitor ICT and the expression of SIGLEC3 measured by the DDCt method. The experimental control is PBMC treated with DMSO and the internal control was GAPDH. Error bars indicate the SEM of three separate donors/experiments.

[2] = test system: BMNCs from three healthy donors; test: Colony formation (CFU-E, BFU-E, CFU-GM) in MethoCult H4434; assay type: cell-based; conditions: healthy donor BMNCs treated 48 hours, different concentrations
Description: FIG. 2 depicts the effect, or lack thereof, of ICA and ICT on hematopoiesis. BMNCs from three healthy donors were treated with ICA or ICT for 48 hours after which colony formation was assessed using MethoCult H4434 complete medium with cytokines. CFU-E, BFU-E and CFU-GM were indentified and counted using an inverted light microscope. Each bar represents the mean results of three individuals with duplicate plates. Results are expressed as means±SD.
Specifically, BMNCs from three healthy donors were treated with different concentrations of ICA or ICT for 48 hours after which colony formation was assessed using MethoCult H4434 complete medium with cytokines. The mixture was placed in 35-mm culture dishes (1×10^5 cells/each dish) and incubated at 37° C. in 5% CO2 for approximately 7-14 days. After incubation, colonies of CFU-E, BFU-E and CFU-GM were indentified and counted using an inverted light microscope. […] Although, these cells were obtained from spleens, it was also found ICA/ICT has a similar effect on MDSCs isolated from tumor tissue. Here, Gr1^+ cells were isolated from tumors of 4T1 tumor-bearing mice. […] Bars represent the relative percentage of MDSC as compared to DMSO treated cells measured by flow cytometry (FIG. 3A). The production of ROS (FIG. 3B) and NO (FIG. 3C) activity of purified MDSC from tumor tissue was also measured.

T1 sequence (P67775 whole entry): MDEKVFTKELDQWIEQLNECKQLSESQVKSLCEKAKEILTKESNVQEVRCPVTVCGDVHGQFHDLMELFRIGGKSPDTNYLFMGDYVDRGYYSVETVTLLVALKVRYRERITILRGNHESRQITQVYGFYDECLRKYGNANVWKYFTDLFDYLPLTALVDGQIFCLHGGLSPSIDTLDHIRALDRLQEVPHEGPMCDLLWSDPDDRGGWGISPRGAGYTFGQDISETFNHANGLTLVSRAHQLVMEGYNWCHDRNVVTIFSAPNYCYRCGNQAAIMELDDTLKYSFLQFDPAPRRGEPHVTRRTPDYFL

## COc1ccc(-c2oc3c(CC=C(C)C)c(O[C@@H]4O[C@H](CO)[C@@H](O)[C@H](O)[C@H]4O)cc(O)c3c(=O)c2O[C@@H]2O[C@@H](C)[C@H](O)[C@@H](O)[C@H]2O)cc1 [ICA, Icariin]
Gr-1+CD11b+ MDSCs
  percent of circulating MDSC: 33.35%
[1]
  expression level of Fc receptor (CD16, FcγRIII) in NK cells: increase the expression level of Fc receptor
PP2A
  phosphatase activity of PP2A: up-regulate the phosphatase activity of PP2A in vitro
4T1 tumors
  tumor growth in vivo: inhibit tumor growth in vivo
SIGLEC3
  SIGLEC3 mRNA and protein expression: down-regulating SIGLEC3 at both the mRNA and protein expression levels
[2]
  effect on hematopoiesis (colony formation): do not affect hematopoiesis

## COc1ccc(-c2oc3c(CCC(C)(C)O)c(O)cc(O)c3c(=O)c2O)cc1 [ICT, 3,5,7-trihydroxy-4′-methoxy-8-(3-hydroxy-3-methylbutyl)-flavone]
Gr-1+CD11b+ MDSCs
  percent of circulating MDSC: 26.97%
[1]
  expression level of Fc receptor (CD16, FcγRIII) in NK cells: increase the expression level of Fc receptor
PP2A
  phosphatase activity of PP2A: up-regulate the phosphatase activity of PP2A in vitro
4T1 tumors
  tumor growth in vivo: inhibit tumor growth in vivo
SIGLEC3
  SIGLEC3 mRNA and protein expression: down-regulating SIGLEC3 at both the mRNA and protein expression levels
SIGLEC3; 20 μM
  expression of CD33 on PBMC: down-regulate the expression of CD33 on PBMC
[2]
  effect on hematopoiesis (colony formation): do not affect hematopoiesis
